Assay results: patent publication US20230233489A1 (priority 2020, published 2023)
Several values for one entry are separate records, joined by “and”; a condition that tells them apart may be missing. Equal entries are not always repeated. Where two headings read alike, the source gives them in different places.

What was measured:
RAC1 = conditions: IBD patients; cited from earlier work
SARS-CoV-2 [1] = conditions: human, in vivo
Ebola virus [2] = conditions: read-out: 50% inhibitive concentration [IC50]; cited from earlier work
MERS-CoV = conditions: read-out: 50% effective concentration [EC50]; cited from earlier work
SARS-CoV-1 = conditions: cited from earlier work
SARS-CoV-2 [3] = conditions: cited from earlier work
Ebola virus [4] = conditions: mouse, in vivo; cited from earlier work
[5] = cited from earlier work
[6] = in vivo; cited from earlier work
SARS-CoV-2 [7] = conditions: human, in vivo; remark: listed apart in the source

In the case of `S=c1nc[nH]c2nc[nH]c12` [Mercaptopurine, mercaptopurine], the RAC1 expression (RAC1) is given as “lower RAC1 expression”.

For `COc1ccccc1OCCNCC(O)COc1cccc2[nH]c3ccccc3c12` (centres unmarked) [carvedilol], the “odds ratio of a positive laboratory test result for SARS-CoV-2” value (SARS-CoV-2 [1]) was 0.74 and 0.90 and 0.73.

For `CN(C)CCOc1ccc(/C(=C(/CCCl)c2ccccc2)c2ccccc2)cc1` [toremifene], the IC50 (Ebola virus [2]) is given as about 1 µM, the EC50 (MERS-CoV) is given as 12.9 µM and the EC50 (SARS-CoV-1) is given as 12 µM. For the same molecule, the IC50 (SARS-CoV-2 [3]) was 3.58 µM, the survival rate (Ebola virus [4]) was “significantly improved survival rate” and the “bound to plasma protein” value [5] was 99%. For the same molecule, the bioavailability [6] was “good”.

In the case of `COc1ccc2[nH]cc(CCNC(C)=O)c2c1` [melatonin], the “odds ratio of a positive laboratory test result for SARS-CoV-2” value (SARS-CoV-2 [7]) is reported as 0.36 and 0.35 and 0.56 and 0.46 and the “odds ratio of SARS-CoV-2 positive test” value (SARS-CoV-2 [1]) is reported as 0.52 and 0.61 and 0.80.
